Results as given in ChEMBL document CHEMBL3217574, “Discovery of CP-866,087, a mu opioid receptor antagonist for the treatment of alcohol abuse and dependence” (Medchemcomm, 2011).

Legend:
[1] = target: T1, Mu-type opioid receptor (Homo sapiens, UniProt P35372); test: Antagonist activity at human mu opioid receptor expressed in CHO cells assessed as [35S]-GTPgammaS binding after 1 hr by liquid scintillation counting analysis; format: functional, cell-based
[2] = Intrinsic clearance in human liver microsomes; format: ADME; settings: read-out: CLH
[3] = system: human MDR1 (P-gp); test: Efflux ratio of apparent permeability from basolateral to apical side over apical to basolateral side in MDCK cells transfected with human MDR1; format: ADME, cell-based, Canis lupus familiaris; settings: dog
[4] = species: Homo sapiens; test: Ratio of ki for human mu opioid receptor to human kappa opioid receptor
[5] = target: CYP2D6 (Homo sapiens, UniProt P10635); test: Inhibition of CYP2D6 (unknown origin) at 3 uM after 8 mins; format: ADME
[6] = target: Kappa-type opioid receptor (Homo sapiens, UniProt P41145); test: Displacement of [3H]diprenorphine from human kappa opioid receptor expressed in cells after 1 hr by liquid scintillation counting analysis; format: cell-based
[7] = target: T1, Mu-type opioid receptor; test: Displacement of [3H]diprenorphine from human mu opioid receptor expressed in cells after 1 hr by liquid scintillation counting analysis; format: cell-based
[8] = target: Voltage-gated inwardly rectifying potassium channel KCNH2 (Homo sapiens, UniProt Q12809); test: Inhibition of human ERG by [3H]dofetilide binding assay
[9] = target: Delta-type opioid receptor (Homo sapiens, UniProt P41143); test: Displacement of [3H]diprenorphine from human delta opioid receptor expressed in cells after 1 hr by liquid scintillation counting analysis; format: cell-based
[10] = species: Homo sapiens; test: Ratio of Ki for human mu opioid receptor to Ki for human delta opioid receptor
[11] = target: hERG (KCNH2) (Homo sapiens, UniProt Q12809); test: Inhibition of human ERG
[12] = system: Rattus norvegicus; test: Antagonist activity against morphine-induced antinociception in sc dosed rat assessed as reversal of latency increase; format: functional
[13] = Inhibition of IC20 for human ERG over plasma efficacious concentration; format: functional
[14] = system: Rattus norvegicus; test: Reduction in alcohol intake in alcohol-preferring rat at 3 mg/kg, sc after 30 mins; format: functional; settings: 0.5 h, route subcutaneous
[15] = Volume of distribution in rat; format: ADME, organism-based; settings: in vivo
[16] = system: Rattus norvegicus; test: Reduction in alcohol intake in alcohol-preferring rat at 5.6 mg/kg, sc after 30 mins; format: functional; settings: 0.5 h, route subcutaneous
[17] = Half life in rat; format: ADME, organism-based; settings: in vivo
[18] = Ratio of drug level in rat brain to plasma at 1 mg/kg, sc at 0.75 hrs time-point; format: ADME, organism-based; parameters: dose 1 mg/kg, route subcutaneous; settings: read-out: BPR
[19] = Fraction unbound in rat at 1 mg/kg, sc at 0.75 hrs time-point; format: ADME, organism-based; parameters: dose 1 mg/kg, route subcutaneous; settings: plasma
[20] = Drug level in rat cerebrospinal fluid at 1 mg/kg, sc at 0.75 hrs time-point; format: ADME, organism-based; parameters: dose 1 mg/kg, route subcutaneous; settings: read-out: Drug uptake
[21] = Total plasma concentration in rat at 1 mg/kg, sc at 0.75 hrs time-point; format: ADME, organism-based; parameters: dose 1 mg/kg, route subcutaneous
[22] = system: Rattus norvegicus; test: Reduction in alcohol intake in alcohol-preferring rat at 1 mg/kg, sc after 30 mins; format: functional; settings: 0.5 h, route subcutaneous
[23] = system: Rattus norvegicus; test: Reduction in alcohol intake in sc dosed alcohol-preferring rat after 30 mins; format: functional, organism-based
[24] = Clearance in rat; format: ADME, organism-based; settings: in vivo

Sequence of Kappa-type opioid receptor (P41145 whole entry): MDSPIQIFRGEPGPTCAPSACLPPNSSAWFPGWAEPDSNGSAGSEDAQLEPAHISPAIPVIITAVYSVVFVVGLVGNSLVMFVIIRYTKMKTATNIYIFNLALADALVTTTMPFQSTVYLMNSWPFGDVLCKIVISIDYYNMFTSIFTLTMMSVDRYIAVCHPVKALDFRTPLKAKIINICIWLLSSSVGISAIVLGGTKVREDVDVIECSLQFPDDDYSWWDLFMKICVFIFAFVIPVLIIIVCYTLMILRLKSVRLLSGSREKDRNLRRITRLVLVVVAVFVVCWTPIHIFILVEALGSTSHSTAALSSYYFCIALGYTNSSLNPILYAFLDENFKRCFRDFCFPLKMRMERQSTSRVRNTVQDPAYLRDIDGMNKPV
Sequence of Voltage-gated inwardly rectifying potassium channel KCNH2 (Q12809 whole entry): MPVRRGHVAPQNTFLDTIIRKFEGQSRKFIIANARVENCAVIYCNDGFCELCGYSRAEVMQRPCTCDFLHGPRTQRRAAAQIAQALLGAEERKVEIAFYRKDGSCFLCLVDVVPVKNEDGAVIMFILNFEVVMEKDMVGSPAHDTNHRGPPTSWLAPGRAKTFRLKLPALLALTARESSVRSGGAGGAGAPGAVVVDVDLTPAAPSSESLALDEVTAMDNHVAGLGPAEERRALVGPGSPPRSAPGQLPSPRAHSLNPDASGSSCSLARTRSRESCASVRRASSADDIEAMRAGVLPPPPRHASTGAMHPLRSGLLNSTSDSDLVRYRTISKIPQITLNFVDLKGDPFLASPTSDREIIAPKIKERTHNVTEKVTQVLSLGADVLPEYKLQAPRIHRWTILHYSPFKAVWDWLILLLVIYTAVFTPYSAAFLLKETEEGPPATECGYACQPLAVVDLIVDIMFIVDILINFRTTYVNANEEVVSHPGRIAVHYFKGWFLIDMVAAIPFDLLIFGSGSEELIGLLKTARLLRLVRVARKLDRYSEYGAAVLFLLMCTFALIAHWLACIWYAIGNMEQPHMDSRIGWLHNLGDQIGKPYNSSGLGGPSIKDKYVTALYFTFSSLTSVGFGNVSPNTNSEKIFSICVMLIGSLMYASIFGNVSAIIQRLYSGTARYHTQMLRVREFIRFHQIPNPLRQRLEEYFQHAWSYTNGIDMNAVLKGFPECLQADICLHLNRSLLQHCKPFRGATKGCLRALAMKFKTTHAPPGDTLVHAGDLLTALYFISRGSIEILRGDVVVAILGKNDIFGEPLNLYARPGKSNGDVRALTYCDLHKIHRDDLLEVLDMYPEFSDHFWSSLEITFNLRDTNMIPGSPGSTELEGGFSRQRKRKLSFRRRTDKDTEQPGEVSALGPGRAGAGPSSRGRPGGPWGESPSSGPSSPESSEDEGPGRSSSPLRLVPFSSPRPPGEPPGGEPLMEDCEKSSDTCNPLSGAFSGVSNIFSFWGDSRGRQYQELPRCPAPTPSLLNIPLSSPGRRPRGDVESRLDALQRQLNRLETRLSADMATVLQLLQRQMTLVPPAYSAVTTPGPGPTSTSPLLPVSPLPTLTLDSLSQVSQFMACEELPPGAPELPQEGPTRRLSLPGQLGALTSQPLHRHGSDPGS
T1 sequence (P35372 whole entry): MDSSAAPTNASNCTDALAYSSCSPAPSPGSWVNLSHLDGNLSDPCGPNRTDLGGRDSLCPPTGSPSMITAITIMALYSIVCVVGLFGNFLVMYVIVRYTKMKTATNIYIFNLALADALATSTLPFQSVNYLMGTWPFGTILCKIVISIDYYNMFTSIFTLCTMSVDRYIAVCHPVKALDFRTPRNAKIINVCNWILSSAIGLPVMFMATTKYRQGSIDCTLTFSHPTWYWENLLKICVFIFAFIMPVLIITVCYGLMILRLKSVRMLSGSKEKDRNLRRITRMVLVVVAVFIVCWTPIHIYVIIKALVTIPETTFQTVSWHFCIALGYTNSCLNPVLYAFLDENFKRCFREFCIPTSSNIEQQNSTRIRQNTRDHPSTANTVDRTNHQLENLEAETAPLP
Sequence of CYP2D6 (P10635 whole entry): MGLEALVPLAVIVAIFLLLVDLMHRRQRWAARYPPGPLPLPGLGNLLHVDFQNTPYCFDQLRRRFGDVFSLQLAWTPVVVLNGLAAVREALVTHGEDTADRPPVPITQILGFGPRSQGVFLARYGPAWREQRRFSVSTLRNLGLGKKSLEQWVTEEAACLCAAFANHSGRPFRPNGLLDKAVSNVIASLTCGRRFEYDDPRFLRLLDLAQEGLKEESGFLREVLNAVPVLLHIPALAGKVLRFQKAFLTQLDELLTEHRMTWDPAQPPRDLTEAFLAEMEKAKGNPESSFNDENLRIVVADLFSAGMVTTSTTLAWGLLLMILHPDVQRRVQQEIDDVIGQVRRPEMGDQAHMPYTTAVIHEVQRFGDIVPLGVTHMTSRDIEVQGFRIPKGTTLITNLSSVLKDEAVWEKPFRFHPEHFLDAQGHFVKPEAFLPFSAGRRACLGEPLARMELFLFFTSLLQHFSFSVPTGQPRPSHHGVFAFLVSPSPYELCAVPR
Sequence of Delta-type opioid receptor (P41143 whole entry): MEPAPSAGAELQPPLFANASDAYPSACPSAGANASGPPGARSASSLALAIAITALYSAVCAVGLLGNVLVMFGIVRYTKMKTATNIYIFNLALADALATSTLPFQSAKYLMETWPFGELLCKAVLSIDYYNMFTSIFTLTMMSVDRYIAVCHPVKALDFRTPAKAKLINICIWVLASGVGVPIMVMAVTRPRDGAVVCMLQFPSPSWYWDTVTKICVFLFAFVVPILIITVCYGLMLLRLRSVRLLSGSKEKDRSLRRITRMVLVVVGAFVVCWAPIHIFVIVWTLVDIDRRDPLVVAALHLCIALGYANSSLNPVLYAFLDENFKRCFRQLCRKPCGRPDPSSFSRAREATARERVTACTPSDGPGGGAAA
Sequence of hERG (KCNH2) (Q12809 whole entry): as the sequence (Q12809 whole entry) above

SMILES: CC[C@]1(c2cccc(C(N)=O)c2)[C@@H]2CN(CC3(O)Cc4ccccc4C3)C[C@@H]21
- Ki [1]: 0.16 nM
- CLint scaled [2]: 11 mL/min/kg
- efflux ratio [3]: 2.9
- Ratio Ki [4]: 17
- inhibition at 8 min, 3 µM [5]: 17%
- Ki [6]: 60 nM
- Ki [7]: 3.5 nM
- IC50 [8]: 2200 nM
- Ki [9]: 108 nM
- Ratio Ki [10]: 31

SMILES: CC[C@]1(c2cccc(NS(C)(=O)=O)c2)[C@@H]2CN(CC3Cc4ccccc4C3)C[C@@H]21
- CLint scaled [2]: 19 mL/min/kg
- efflux ratio [3]: 3.5
- inhibition at 8 min, 3 µM [5]: 35%
- IC50 [8]: 326 nM

SMILES: CC[C@]1(c2cccc(NS(C)(=O)=O)c2)[C@@H]2CN(CCCC3(O)CCCCC3)C[C@@H]21
- Ki [1]: 0.18 nM
- CLint scaled [2]: 9 mL/min/kg
- IC20 [11]: 320 nM
- ED50 [12]: 0.63 mg/kg
- Ratio [13]: 15
- efflux ratio [3]: 6.5
- Ratio Ki [4]: 8
- inhibition at 8 min, 3 µM [5]: 14%
- Ki [6]: 16 nM
- Ki [7]: 2 nM
- IC50 [8]: 710 nM
- Ki [9]: 166 nM
- Ratio Ki [10]: 83

SMILES: O=C1CC[C@@]2(O)[C@H]3Cc4ccc(O)c5c4[C@@]2(CCN3CC2CC2)[C@H]1O5 [NALTREXONE]
- inhibition in vivo at 3 mg/kg [14]: 21%

SMILES: CC[C@]1(c2cccc(NS(C)(=O)=O)c2)[C@@H]2CN(CC3(O)Cc4ccccc4C3)C[C@@H]21 [CP-866087]
- Ki [1]: 0.28 nM
- Vd [15]: 21.7 L/kg
- inhibition in vivo at 5.6 mg/kg [16]: 42%
- CLint scaled [2]: 12 mL/min/kg
- half-life [17]: 11 h
- Kp at 0.75 h [18]: 2
- ED50 [12]: 0.1 mg/kg
- fraction unbound at 0.75 h [19]: 0.034
- concentration at 0.75 h [20]: 11.9 nM
- concentration at 0.75 h [21]: 338 nM
- inhibition at 8 min, 3 µM [5]: 6%
- Ki [6]: 42 nM
- inhibition in vivo at 1 mg/kg [22]: 23%
- Ki [7]: 1 nM
- inhibition [23]: Dose-dependent effect
- clearance [24]: 120 mL/min/kg
- Ki [9]: 170 nM
